Laboratory results published in US9416115B2, “Fused heterocyclic compounds as ion channel modulators” (Gilead Sciences, Inc., priority 2013, dated 2016).
Read-outs that look alike come from different tables or passages of the source.

Experiments:
[1] = target: wild-type human cardiac sodium channel, hNav1.5 (Homo sapiens, UniProt Q14524); assay: Peak INa screening assay (tonic block and use-dependent block); type: cell-based
Procedure: The cardiac late sodium current (Late INa) and peak sodium current (Peak INa) assays are performed on an automated electrophysiology platform, QPatch 16X or QPatch HT (Sophion Bioscience, Copenhagen, Denmark) using the whole cell patch clamp technique to measure currents through the cell membrane. The assay uses an HEK293 (human embryonic kidney) cell line heterologously expressing the wild-type human cardiac sodium channel, hNav1.5, purchased from Millipore (Billerica, Mass.). No beta subunits were coexpressed with the Na channel alpha subunit. Cells are maintained with standard tissue culture procedures and stable channel expression is maintained with 400 μg/mL Geneticin in the culture medium. Experiments are carried out at 23-25° C.
For both the Late INa and Peak INa assays, series resistance compensation is set to 100% and series resistance and whole-cell compensation are performed automatically. Currents are digitized at 25 kHz and low-pass filtered at 5 kHz and stored in the Sophion Bioscience Oracle database (Sophion Bioscience, Copenhagen, Denmark). Analysis is performed using QPatch Assay software and data are compiled in Excel 2010 (Microsoft, Seattle, Wash., U.S.A.).
Compound stocks are routinely made by the Gilead Sample Bank in vials to 10 mM in dimethyl sulfoxide (DMSO). In some cases, when compounds are not soluble in DMSO, they are made in 100% ethanol. Stocks are sonicated as necessary. The extracellular solution for screening Late INa is composed of: 140 mM NaCl, 4 mM KCl, 1.8 mM CaCl2, 1 mM MgCl2, 10 mM HEPES and 10 mM Dextrose with pH adjusted to 7.35 using NaOH. The intracellular solution contains: 105 mM CsF, 20 mM CsCl, 10NaF, 2 mM EGTA, 10 mM HEPES and 10 mM Dextrose with pH adjusted to 7.35 with CsOH. Compounds are diluted in extracellular solution using a MicroLab Nimbus (Hamilton Robotics, Reno, Nev.) to between 0.3 and 3 μM in glass vials and transferred to glass well plates before robotic addition to the cells. The 0 mM Na extracellular solution (0Na-ECF) used at the end of each experiment for the Late INa and Peak INa assays to measure baseline current contains: 140 Choline-Cl; 4 mM KCl, 1.8 mM CaCl2; 1 mM MgCl2; 10 mM HEPES and 10 mM Dextrose with pH was adjusted to 7.35 with CsOH.
Compounds were evaluated for their effect Nav1.5 Peak INa. It is contemplated that the compounds of Formula I avoid significant block of peak INa. Since the peak INa in the cells used herein can be very large, introducing artifacts in the recording, the concentration of Na^+ in the bath can be reduced to 40 mM by isosmotic replacement of Na^+ with Choline (see below).
Tonic Block (TB) of Peak INa was measured using a voltage step to −20 mV from a holding potential of −100 mV at a low stimulation frequency of 0.1 Hz. Use-Dependent Block (UDB) of Peak INa was measured during pulse number 50 of a pulse train (−20 mV, 20 ms, 50 pulses, 3 Hz) from a holding potential of −100 mV.
The extracellular solution for screening Peak INa is composed of: 40 mM NaCl, 100 mM Choline-Cl, 4 mM KCl, 1.8 mM CaCl2, 1 mM MgCl2 10 mM HEPES and 10 mM Dextrose with pH adjusted to 7.35 using NaOH. The intracellular solution used for the Peak INa assay is the same as outlined for the Late INa assay (see above).
After establishing the whole cell recording configuration, channels were stimulated to open with low frequency (0.1 Hz) so that the recording can be monitored and the extent to which the recording has stabilized can be assessed.
The test compound is then applied at 1 or 3 μM and was added 2 times at 60 second intervals. After the second compound addition, a 200 second wait period was imposed to allow for equilibration. Voltage protocols for TB and UDB are were performed in the absence and presence of compound and TB and UDB are calculated with respect to the compound free condition. Both TB and UDB were analyzed by incorporating rundown correction for the peak INa.

hNaV1.2 (SCN2A) = target: T1, hNaV1.2 (SCN2A) (Homo sapiens, UniProt Q99250); assay: Use-dependent inhibition of the CNS Nav1.2 sodium channel; type: cell-based; settings: use-dependent block, 25 Hz, pulse 20, read-out: Nav1.2 UDB 25 Hz 10 uM
T1 construct: expressed in transfected cells
T1 sequence (Q99250 whole entry): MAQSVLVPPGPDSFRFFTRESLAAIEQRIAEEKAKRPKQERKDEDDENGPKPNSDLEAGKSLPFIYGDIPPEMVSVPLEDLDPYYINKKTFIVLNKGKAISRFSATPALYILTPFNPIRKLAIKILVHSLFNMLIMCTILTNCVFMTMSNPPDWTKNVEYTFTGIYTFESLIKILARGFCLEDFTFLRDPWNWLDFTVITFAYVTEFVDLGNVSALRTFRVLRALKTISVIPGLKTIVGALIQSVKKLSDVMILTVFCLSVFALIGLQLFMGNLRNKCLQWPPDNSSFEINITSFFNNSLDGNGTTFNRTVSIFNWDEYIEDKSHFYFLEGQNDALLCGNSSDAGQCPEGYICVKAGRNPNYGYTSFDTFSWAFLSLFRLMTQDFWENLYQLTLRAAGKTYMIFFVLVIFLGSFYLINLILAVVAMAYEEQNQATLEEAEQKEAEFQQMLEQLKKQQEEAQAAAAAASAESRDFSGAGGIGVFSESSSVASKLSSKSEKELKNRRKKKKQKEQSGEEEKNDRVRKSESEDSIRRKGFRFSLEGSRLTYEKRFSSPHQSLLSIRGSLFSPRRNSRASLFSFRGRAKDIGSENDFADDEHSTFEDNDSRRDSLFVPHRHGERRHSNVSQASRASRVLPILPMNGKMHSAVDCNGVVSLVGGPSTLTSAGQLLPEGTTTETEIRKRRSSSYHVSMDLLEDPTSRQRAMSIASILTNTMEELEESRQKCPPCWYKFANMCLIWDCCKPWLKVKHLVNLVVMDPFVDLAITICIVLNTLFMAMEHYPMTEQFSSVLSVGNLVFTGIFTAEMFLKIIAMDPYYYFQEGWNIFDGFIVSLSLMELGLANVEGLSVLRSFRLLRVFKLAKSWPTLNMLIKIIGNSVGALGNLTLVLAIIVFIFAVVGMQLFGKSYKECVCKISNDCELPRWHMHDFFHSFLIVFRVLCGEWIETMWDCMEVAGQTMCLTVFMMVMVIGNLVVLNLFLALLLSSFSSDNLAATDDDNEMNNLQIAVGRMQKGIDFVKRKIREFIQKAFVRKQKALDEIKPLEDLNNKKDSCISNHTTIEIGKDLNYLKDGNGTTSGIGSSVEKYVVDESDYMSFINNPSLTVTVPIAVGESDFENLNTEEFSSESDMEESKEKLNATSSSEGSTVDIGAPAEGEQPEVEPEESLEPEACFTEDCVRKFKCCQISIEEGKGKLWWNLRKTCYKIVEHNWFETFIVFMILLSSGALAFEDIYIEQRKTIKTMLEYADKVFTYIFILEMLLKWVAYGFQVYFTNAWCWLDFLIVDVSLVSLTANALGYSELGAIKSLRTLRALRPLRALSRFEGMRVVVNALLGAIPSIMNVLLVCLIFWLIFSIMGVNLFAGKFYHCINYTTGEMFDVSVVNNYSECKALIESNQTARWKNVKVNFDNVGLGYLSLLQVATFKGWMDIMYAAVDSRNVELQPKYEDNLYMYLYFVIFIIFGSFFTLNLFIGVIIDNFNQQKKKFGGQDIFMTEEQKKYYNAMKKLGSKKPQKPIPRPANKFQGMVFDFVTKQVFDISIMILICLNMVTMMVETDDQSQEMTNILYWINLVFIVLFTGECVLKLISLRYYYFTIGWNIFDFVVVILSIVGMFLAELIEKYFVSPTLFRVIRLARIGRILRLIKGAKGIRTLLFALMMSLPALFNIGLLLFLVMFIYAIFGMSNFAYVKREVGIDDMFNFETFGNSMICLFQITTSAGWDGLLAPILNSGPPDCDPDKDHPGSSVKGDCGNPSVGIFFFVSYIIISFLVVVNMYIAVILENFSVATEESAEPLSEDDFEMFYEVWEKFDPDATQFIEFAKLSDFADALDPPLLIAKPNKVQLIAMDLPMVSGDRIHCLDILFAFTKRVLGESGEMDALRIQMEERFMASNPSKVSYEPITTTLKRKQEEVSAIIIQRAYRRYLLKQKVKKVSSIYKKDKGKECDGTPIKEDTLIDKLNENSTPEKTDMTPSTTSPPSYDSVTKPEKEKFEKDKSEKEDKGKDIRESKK
T1 sequence (Q07699 19-218 partner): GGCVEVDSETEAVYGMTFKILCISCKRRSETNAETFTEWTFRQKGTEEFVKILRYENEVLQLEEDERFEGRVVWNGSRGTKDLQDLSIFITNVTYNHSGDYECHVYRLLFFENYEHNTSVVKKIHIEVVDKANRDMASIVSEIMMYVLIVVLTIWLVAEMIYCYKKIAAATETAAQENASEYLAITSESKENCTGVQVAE
T1 sequence (O60939 30-215 partner): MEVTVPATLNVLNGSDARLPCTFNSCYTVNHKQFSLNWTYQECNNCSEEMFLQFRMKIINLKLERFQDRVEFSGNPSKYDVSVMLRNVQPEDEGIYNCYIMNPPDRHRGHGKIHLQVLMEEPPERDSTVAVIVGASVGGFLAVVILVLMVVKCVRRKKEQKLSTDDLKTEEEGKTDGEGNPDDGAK
Procedure: HEK-293 cells stably expressing wild-type (WT) hNaV1.2 (SCN2A NCBI # NM_021007.2, SCN1B NCBI # NM_001037.4, SCN2B NCBI # NM_004588.2) were used to record INa. Cells are maintained with standard tissue culture procedures and stable channel expression is maintained with 800 ug/mL G418 and 3 ug/mL Puromycin in the culture medium. Unless otherwise noted, all reagents are purchased from Sigma-Aldrich (St Louis, Mo., U.S.A.).
Assays measuring Use-Dependent Block (UDB) of Nav1.2 are performed on an automated electrophysiology platform, QPatch 16X or QPatch HT (Sophion Bioscience, Copenhagen, Denmark), using the whole cell patch clamp technique to measure currents through the cell membrane. Series resistance compensation is set to 100% and series resistance and whole-cell compensation are performed automatically. Currents stored in the Sophion Bioscience Oracle database (Sophion Bioscience, Copenhagen, Denmark). Analysis is performed using QPatch Assay software and data are compiled in Excel 2010 (Microsoft, Seattle, Wash., U.S.A.).
The internal (pipette) solution consists of (in mM) 105 CsF, 10 NaF, 20 CsCl, 2 EGTA, 10 HEPES, 10 Dextrose with a pH of 7.35 and osmolarity of 300 mOsmol/kg. The external (bath) solution contains in (mM): 145 NaCl, 4 KCl, 1.8 CaCl2, 1 MgCl2, 10 dextrose, 10 HEPES, with a pH of 7.35 and osmolarity of 310 mOsmol/kg. Experiments are carried out at 23-25° C.
Compound stocks are routinely made by the Gilead Sample Bank in vials to 10 mM in dimethyl sulfoxide (DMSO). In some cases, when compounds are not soluble in DMSO, they are made in 100% ethanol. Stocks are sonicated as necessary. […]
Cells are allowed to stabilize for 10 min after establishment of the whole-cell configuration before current is measured. The test compound is applied 2 times at 60 second intervals. After the second compound addition, a 200 second wait period was imposed to allow for equilibration. Leak currents are subtracted by using an online P/4 procedure and all currents are low-pass Bessel filtered at 5 kHz and digitized at […].
Results are presented as mean percentage inhibition.
Use-dependent block of Nav1.2 peak current is measured during pulse number 20 of a voltage pulse train (0 mV, 20 ms, 20 pulses, 25 Hz) from a holding potential of −120 mV.
Currents are normalized to the peak current recorded in response to the first pulse in each frequency train. The voltage protocol for UDB was performed in the absence and presence of compound and percentage inhibition was calculated with respect to the compound free condition.

[2] = tonic block of Peak INa, 0.1 Hz, holding -100 mV, read-out: Peak TB 3 uM
[3] = use-dependent block of Peak INa, 3 Hz, pulse 50, read-out: Peak UDB 3 Hz 3 uM

wild-type human cardiac sodium channel, hNav1.5, sequence (Q14524 whole entry): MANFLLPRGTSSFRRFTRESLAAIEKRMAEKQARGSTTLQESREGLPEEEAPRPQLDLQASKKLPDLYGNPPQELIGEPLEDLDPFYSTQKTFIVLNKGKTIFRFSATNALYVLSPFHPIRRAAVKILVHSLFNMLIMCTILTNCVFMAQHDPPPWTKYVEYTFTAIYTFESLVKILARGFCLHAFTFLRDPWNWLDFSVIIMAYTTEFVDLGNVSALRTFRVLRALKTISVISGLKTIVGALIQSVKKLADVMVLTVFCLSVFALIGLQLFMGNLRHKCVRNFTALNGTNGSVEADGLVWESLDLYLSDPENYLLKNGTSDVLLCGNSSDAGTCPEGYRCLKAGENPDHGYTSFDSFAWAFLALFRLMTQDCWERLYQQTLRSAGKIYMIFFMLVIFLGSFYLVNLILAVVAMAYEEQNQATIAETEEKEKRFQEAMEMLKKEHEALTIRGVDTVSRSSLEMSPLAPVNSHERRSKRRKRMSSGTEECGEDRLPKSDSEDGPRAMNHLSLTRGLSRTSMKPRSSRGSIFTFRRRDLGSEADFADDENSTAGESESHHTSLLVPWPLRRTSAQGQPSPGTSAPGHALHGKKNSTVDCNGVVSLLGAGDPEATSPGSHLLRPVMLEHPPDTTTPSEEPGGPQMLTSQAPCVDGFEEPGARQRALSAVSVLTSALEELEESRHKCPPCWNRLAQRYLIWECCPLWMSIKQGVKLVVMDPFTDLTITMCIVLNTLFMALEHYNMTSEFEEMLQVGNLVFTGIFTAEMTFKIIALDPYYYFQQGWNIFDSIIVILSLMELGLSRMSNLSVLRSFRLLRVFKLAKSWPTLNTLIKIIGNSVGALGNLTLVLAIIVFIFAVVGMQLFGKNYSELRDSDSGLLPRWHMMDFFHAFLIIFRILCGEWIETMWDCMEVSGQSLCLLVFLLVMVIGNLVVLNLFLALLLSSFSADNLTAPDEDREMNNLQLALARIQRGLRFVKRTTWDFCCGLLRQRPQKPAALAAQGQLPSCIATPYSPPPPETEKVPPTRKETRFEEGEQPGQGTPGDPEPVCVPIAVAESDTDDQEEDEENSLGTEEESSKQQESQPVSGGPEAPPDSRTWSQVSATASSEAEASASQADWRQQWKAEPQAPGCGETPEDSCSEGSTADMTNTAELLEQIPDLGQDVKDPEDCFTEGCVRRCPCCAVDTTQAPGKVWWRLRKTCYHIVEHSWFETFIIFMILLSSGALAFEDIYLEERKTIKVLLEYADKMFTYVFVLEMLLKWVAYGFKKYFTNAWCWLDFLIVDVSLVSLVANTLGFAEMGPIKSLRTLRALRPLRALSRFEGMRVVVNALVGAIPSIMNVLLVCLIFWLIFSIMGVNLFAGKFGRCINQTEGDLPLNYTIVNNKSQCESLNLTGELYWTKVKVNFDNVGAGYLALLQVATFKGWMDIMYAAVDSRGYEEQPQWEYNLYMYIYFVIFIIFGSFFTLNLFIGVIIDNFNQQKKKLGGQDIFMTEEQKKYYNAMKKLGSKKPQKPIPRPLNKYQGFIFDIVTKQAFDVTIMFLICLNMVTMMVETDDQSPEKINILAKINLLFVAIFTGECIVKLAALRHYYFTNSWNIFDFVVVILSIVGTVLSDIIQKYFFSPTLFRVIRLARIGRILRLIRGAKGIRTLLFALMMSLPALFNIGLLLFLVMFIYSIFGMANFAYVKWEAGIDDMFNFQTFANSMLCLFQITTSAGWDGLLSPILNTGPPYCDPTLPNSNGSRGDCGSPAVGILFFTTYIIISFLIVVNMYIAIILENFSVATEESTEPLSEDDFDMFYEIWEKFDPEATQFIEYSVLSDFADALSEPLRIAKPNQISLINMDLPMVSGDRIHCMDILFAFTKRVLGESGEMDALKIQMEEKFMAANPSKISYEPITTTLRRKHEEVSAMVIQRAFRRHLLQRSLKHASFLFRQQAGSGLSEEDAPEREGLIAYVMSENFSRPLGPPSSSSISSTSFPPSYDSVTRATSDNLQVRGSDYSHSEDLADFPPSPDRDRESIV

Fc1cc(C(F)(F)F)ccc1-c1ccc2onc(OCc3ncccn3)c2c1 [Example 6, 5-(2-fluoro-4-(trifluoromethyl)phenyl)-3-(pyrimidin-2-ylmethoxy)benzo[d]isoxazole]
inhibition at 3 µM [1, 2]: 29.8% | inhibition at 3 µM [1, 3]: 12.6% | inhibition at 10 µM (hNaV1.2 (SCN2A)): < 5%

FC(F)(F)Oc1ccc(-c2ccc3onc(OC[C@@H]4COCCN4)c3c2)cc1 [Example 113, (S)-3-(morpholin-3-ylmethoxy)-5-(4-(trifluoromethoxy)phenyl)benzo[d]isoxazole]
inhibition at 3 µM [1, 2]: 54.3% | inhibition at 3 µM [1, 3]: 37.3% | inhibition at 10 µM (hNaV1.2 (SCN2A)): 91.2%

Cc1nnc(COc2noc3c(F)cc(-c4ccc(OC(F)(F)F)cc4)cc23)o1 [Example 155, 7-fluoro-3-((5-methyl-1,3,4-oxadiazol-2-yl)methoxy)-5-(4-(trifluoromethoxy)phenyl)benzo[d]isoxazole]
inhibition at 3 µM [1, 2]: 24.8% | inhibition at 3 µM [1, 3]: 8.4% | inhibition at 10 µM (hNaV1.2 (SCN2A)): 58.6%

FC(F)(F)Oc1ccc(-c2ccc3onc(-n4cnc(C(F)(F)F)c4)c3c2)cc1 [Example 145, 5-(4-(trifluoromethoxy)phenyl)-3-(4-(trifluoromethyl)-1H-imidazol-1-yl)benzo[d]isoxazole]
inhibition at 3 µM [1, 2]: 93% | inhibition at 3 µM [1, 3]: < 5% | inhibition at 10 µM (hNaV1.2 (SCN2A)): 75.8%

FC(F)(F)Oc1ccc(-c2ccc3onc(-n4cnc(Cl)c4)c3c2)cc1 [Example 140, 3-(4-chloro-1H-imidazol-1-yl)-5-(4-(trifluoromethoxy)phenyl)benzo[d]isoxazole]
inhibition at 3 µM [1, 2]: 8.5% | inhibition at 3 µM [1, 3]: < 5% | inhibition at 10 µM (hNaV1.2 (SCN2A)): < 5%

FC(F)(F)Oc1ccc(-c2ccc3onc(OCCn4cncn4)c3c2)cc1 [Example 58, 3-(2-(1H-1,2,4-triazol-1-yl)ethoxy)-5-(4-(trifluoromethoxy)phenyl)benzo[d]isoxazole]
inhibition at 3 µM [1, 2]: 22.2% | inhibition at 3 µM [1, 3]: < 5% | inhibition at 10 µM (hNaV1.2 (SCN2A)): 14.5%

FC(F)(F)Oc1ccc(-c2ccc3onc(NCC4CC4)c3c2)cc1 [Example 128, N-(cyclopropylmethyl)-5-(4-(trifluoromethoxy)phenyl)benzo[d]isoxazol-3-amine]
inhibition at 3 µM [1, 2]: 17.3% | inhibition at 3 µM [1, 3]: < 5% | inhibition at 10 µM (hNaV1.2 (SCN2A)): < 5%

CCn1ccnc1COc1noc2ccc(-c3ccc(OC(F)(F)F)cc3)cc12 [Example 47, 3-((1-ethyl-1H-imidazol-2-yl)methoxy)-5-(4-(trifluoromethoxy)phenyl)benzo[d]isoxazole]
inhibition at 3 µM [1, 2]: 21.7% | inhibition at 3 µM [1, 3]: 8.5% | inhibition at 10 µM (hNaV1.2 (SCN2A)): 31.5%

CC(C)NC(=O)COc1noc2ccc(-c3ccc(OC(F)(F)F)cc3)cc12 [Example 122, N-isopropyl-2-((5-(4-(trifluoromethoxy)phenyl)benzo[d]isoxazol-3-yl)oxy)acetamide]
inhibition at 3 µM [1, 2]: 10.7% | inhibition at 3 µM [1, 3]: < 5% | inhibition at 10 µM (hNaV1.2 (SCN2A)): 29.7%

CCN(CC)C(=O)COc1noc2ccc(-c3ccc(OC(F)(F)F)cc3)cc12 [Example 150, N,N-diethyl-2-((5-(4-(trifluoromethoxy)phenyl)benzo[d]isoxazol-3-yl)oxy)acetamide]
inhibition at 3 µM [1, 2]: 58.5% | inhibition at 3 µM [1, 3]: 9.3% | inhibition at 10 µM (hNaV1.2 (SCN2A)): 51%

FC(F)(F)Oc1ccc(-c2ccc3onc(OCC4CCO4)c3c2)cc1 (stereo not shown) [Example 42, 3-(oxetan-2-ylmethoxy)-5-(4-(trifluoromethoxy)phenyl)benzo[d]isoxazole]
inhibition at 3 µM [1, 2]: 27.6% | inhibition at 3 µM [1, 3]: < 5% | inhibition at 10 µM (hNaV1.2 (SCN2A)): < 5%

Fc1cc(-c2ccc(OC(F)(F)F)cc2)cc2c(OCc3nnc(C4CC4)o3)noc12 [Example 104, 3-((5-cyclopropyl-1,3,4-oxadiazol-2-yl)methoxy)-7-fluoro-5-(4-(trifluoromethoxy)phenyl)benzo[d]isoxazole]
inhibition at 3 µM [1, 2]: 23.6% | inhibition at 3 µM [1, 3]: 19.8% | inhibition at 10 µM (hNaV1.2 (SCN2A)): 57%

Cc1cc(COc2noc3ccc(-c4ccc(OC(F)(F)F)cc4)cc23)on1 [Example 102, 3-((3-methylisoxazol-5-yl)methoxy)-5-(4-(trifluoromethoxy)phenyl)benzo[d]isoxazole]
inhibition at 3 µM [1, 2]: 27.8% | inhibition at 3 µM [1, 3]: 7.7% | inhibition at 10 µM (hNaV1.2 (SCN2A)): 20.6%

FC(F)(F)c1ccc(-c2ccc3onc(OCc4ncccn4)c3c2)cc1 [Example 9, 3-(pyrimidin-2-ylmethoxy)-5-(4-(trifluoromethyl)phenyl)benzo[d]isoxazole]
inhibition at 3 µM [1, 2]: 41.3% | inhibition at 3 µM [1, 3]: 10.3% | inhibition at 10 µM (hNaV1.2 (SCN2A)): < 5%

FC(F)(F)Oc1ccc(-c2ccc3onc(OCc4nnc(C5CC5)s4)c3c2)cc1 [Example 154, 3-((5-cyclopropyl-1,3,4-thiadiazol-2-yl)methoxy)-5-(4-(trifluoromethoxy)phenyl)benzo[d]isoxazole]
inhibition at 3 µM [1, 2]: 7.68% | inhibition at 3 µM [1, 3]: < 5% | inhibition at 10 µM (hNaV1.2 (SCN2A)): 27%

FC(F)(F)Oc1ccc(-c2ccc3onc(OCCNc4ncccn4)c3c2)cc1 [Example 123, N-(2-((5-(4-(trifluoromethoxy)phenyl)benzo[d]isoxazol-3-yl)oxy)ethyl)pyrimidin-2-amine]
inhibition at 3 µM [1, 2]: 27.3% | inhibition at 3 µM [1, 3]: < 5% | inhibition at 10 µM (hNaV1.2 (SCN2A)): < 5%

FC(F)(F)Oc1ccc(-c2ccc3onc(OCc4ncccn4)c3c2)cc1 [Example 1, 3-(pyrimidin-2-ylmethoxy)-5-(4-(trifluoromethoxy)phenyl)benzo[d]isoxazole]
inhibition at 10 µM (hNaV1.2 (SCN2A)): 10.2%
